The values below come from patent publication US8501778B2, “Aralkyl piperidine derivatives and their uses as antalgic or ataractic agent” (priority 2008, dated 2013).

Assay [1] deals with Kunming mice. The experiment in a line: Acetic Acid Twisting Method in mice (antalgic effect). To be noted: Mus musculus. In kind it is in vivo.
Assay [2] deals with Kunming mice. The experiment in a line: Hot Plate Method in mice (antalgic effect). In kind it is in vivo. To be noted: Mus musculus, read-out: Increasing rate of pain threshold (%).
[3] abbreviates: sc, 10 mg/kg, subcutaneous injection at neck, mice, read-out: twisting response inhibiting rate (%).
Where [4] appears, read: sc, 20 mg/kg, subcutaneous injection at neck, mice, read-out: twisting response inhibiting rate (%).
The mark [5] stands for this setting: sc, 40 mg/kg, subcutaneous injection at neck, mice, read-out: twisting response inhibiting rate (%).
Where [6] appears, read: sc, subcutaneous injection at neck, 1 hour after dosing, hot plate 55.5° C.
Where [7] appears, read: po, 10 mg/kg, gavage administration, mice, read-out: twisting response inhibiting rate (%).
[8] abbreviates: po, 20 mg/kg, gavage administration, mice, read-out: twisting response inhibiting rate (%).
The mark [9] stands for this setting: po, 40 mg/kg, gavage administration, mice, read-out: twisting response inhibiting rate (%).
The mark [10] stands for this setting: po, 1 h, gavage administration, hot plate.
The mark [11] stands for this setting: sc, read-out: twisting response inhibiting rate (%).

Structures can show the parent of a compound that is named as a salt. Where two headings read alike, the source gives them in different places.

Turning to `O=C(CC1(O)CCN(Cc2ccc(F)cc2)CC1)c1ccccc1` [III-3, N-p-fluorobenzyl-4-benzoylmethyl-4-piperidinol hydrochloride], the inhibition in vivo at 20 mg/kg in assay [1] (sc, read-out: antalgic) was found to be 76%. Also, the inhibition in vivo at 10 mg/kg in assay [1] (setting [3]) was determined as 69.4%. Moreover, in assay [1] (setting [4]), the inhibition in vivo at 20 mg/kg was found to be 77.2%. For the same compound, in assay [1] (setting [5]), the inhibition in vivo at 40 mg/kg came to 71.5%. For the same compound, in assay [2] (setting [6]), the change in vivo at 10 mg/kg was determined as 11.9%, the change in vivo at 20 mg/kg worked out at 18.5% and the change in vivo at 40 mg/kg was 29.4%.
For `CC(c1ccc(N2CCOCC2)cc1)N1CCC(Cl)(CC(=O)c2ccccc2)CC1` (stereo not shown) [IX-7, N-(1-(4-morpholinophenyl)ethyl)-4-benzoylmethyl-4-chloropiperidine hydrochloride], in assay [1] (sc, read-out: antalgic), the inhibition in vivo at 20 mg/kg was 72%. The inhibition in vivo at 10 mg/kg in assay [1] (setting [3]) was 66%. In addition, the inhibition in vivo at 20 mg/kg in assay [1] (setting [4]) is 60.3%. Also, the inhibition in vivo at 40 mg/kg in assay [1] (setting [5]) was 76.4%. Moreover, in assay [2] (setting [6]), the change in vivo at 10 mg/kg was found to be 79.5%, the change in vivo at 20 mg/kg is 101% and the change in vivo at 40 mg/kg is 130%.
Turning to `O=C(CC1(O)CCN(C(c2ccccc2)c2ccccc2)CC1)c1ccccc1` [III-7, N-diphenylmethyl-4-benzoylmethyl-4-piperidinol hydrochloride], in assay [1] (setting [7]), the inhibition in vivo at 10 mg/kg came to 25.8%. Also, the inhibition in vivo at 20 mg/kg in assay [1] (setting [8]) was found to be 38%. Also, in assay [1] (setting [9]), the inhibition in vivo at 40 mg/kg came out at 44.2%. Moreover, the inhibition in vivo at 20 mg/kg in assay [1] (sc, read-out: antalgic) was 45%. In assay [2] (setting [10]), the change in vivo at 10 mg/kg is 82.8% and the change in vivo at 20 mg/kg is 126%.
`Nc1ccc(CN2CCC(O)(CC(=O)c3ccccc3)CC2)cc1` [III-5, N-p-aminobenzyl-4-benzoylmethyl-4-piperidinol hydrochloride]: the inhibition in vivo at 20 mg/kg in assay [1] (sc, read-out: antalgic) came to 100%. In assay [1] (setting [11]), the inhibition in vivo at 10 mg/kg was 100%, the inhibition in vivo at 20 mg/kg is 100% and the inhibition in vivo at 40 mg/kg worked out at 100%. Also, in assay [2] (setting [6]), the change in vivo at 10 mg/kg was determined as 58.3%, the change in vivo at 20 mg/kg was 75.6% and the change in vivo at 40 mg/kg came out at 190%.
In the case of `O=C(CC1(O)CCN(Cc2ccccc2)CC1)c1ccccc1` [III-1, N-benzyl-4-benzoylmethyl-4-piperidinol hydrochloride], in assay [1] (sc, read-out: antalgic), the inhibition in vivo at 20 mg/kg came to 62%. In addition, the inhibition in vivo at 10 mg/kg in assay [1] (setting [3]) is 73.3%. In addition, the inhibition in vivo at 20 mg/kg in assay [1] (setting [4]) is 59.4%. In assay [1] (setting [5]), the inhibition in vivo at 40 mg/kg turned out to be 91.1%. Besides, in assay [2] (setting [6]), the change in vivo at 10 mg/kg was found to be 99.7%, the change in vivo at 20 mg/kg came out at 89% and the change in vivo at 40 mg/kg amounted to 148%.
For the compound `O=C(CC1(O)CCN(Cc2ccc([N+](=O)[O-])cc2)CC1)c1ccccc1` [III-4, N-p-nitrobenzyl-4-benzoylmethyl-4-piperidinol hydrochloride], the inhibition in vivo at 20 mg/kg in assay [1] (sc, read-out: antalgic) was 100%. Also, in assay [1] (setting [11]), the inhibition in vivo at 10 mg/kg came out at 100%, the inhibition in vivo at 20 mg/kg was 100% and the inhibition in vivo at 40 mg/kg was 100%. Further, in assay [2] (setting [6]), the change in vivo at 10 mg/kg is 19.8%, the change in vivo at 20 mg/kg came out at 6.47% and the change in vivo at 40 mg/kg worked out at 15.9%.
Consider `OC(CC1(O)CCN(C(c2ccccc2)c2ccccc2)CC1)c1ccccc1` (stereo not shown) [Compound V-3, N-diphenylmethyl-4-(2-hydroxy-2-phenylethyl)-4-piperidinol hydrochloride], for which the inhibition in vivo at 10 mg/kg in assay [1] (setting [7]) was determined as 60.6%. Moreover, the inhibition in vivo at 20 mg/kg in assay [1] (setting [8]) worked out at 49.8%. In addition, the inhibition in vivo at 40 mg/kg in assay [1] (setting [9]) was 68.1%. In addition, the inhibition in vivo at 20 mg/kg in assay [1] (sc, read-out: antalgic) stood at 84%. For the same compound, in assay [2] (setting [10]), the change in vivo at 10 mg/kg came to 64.1%, the change in vivo at 20 mg/kg was 86.8% and the change in vivo at 40 mg/kg was found to be 136%.
As to `COc1ccc(C(C)N2CCC(F)(CC(=O)c3ccccc3)CC2)cc1` (stereo not shown) [IX-1, N-(1-(p-methoxyphenyl)ethyl)-4-benzoylmethyl-4-fluoropiperidine hydrochloride], the inhibition in vivo at 20 mg/kg in assay [1] (sc, read-out: antalgic) was determined as 76%. The inhibition in vivo at 10 mg/kg in assay [1] (setting [3]) is 60.4%. In addition, in assay [1] (setting [4]), the inhibition in vivo at 20 mg/kg was determined as 68.7%. Besides, the inhibition in vivo at 40 mg/kg in assay [1] (setting [5]) stood at 81%. Besides, in assay [2] (setting [6]), the change in vivo at 10 mg/kg was found to be 86.4%, the change in vivo at 20 mg/kg was determined as 109% and the change in vivo at 40 mg/kg worked out at 156%.
